Among the data in patent US20190337924A1, “SUBSTITUTED HYDANTOIN AND THIOHYDANTOIN DERIVATIVES AS ANDROGEN RECEPTOR ANTAGONISTS” (Janssen Pharmaceutica NV, priority 2016, published 2019) are EC50 and Emax values, retold here.

The assay deals with T1, wild-type Androgen Receptor (AR-wt) (Homo sapiens, UniProt P10275).
T1 construct: expressed in transfected cells; host or cells: LNCaP
T1 sequence (P10275 1-920): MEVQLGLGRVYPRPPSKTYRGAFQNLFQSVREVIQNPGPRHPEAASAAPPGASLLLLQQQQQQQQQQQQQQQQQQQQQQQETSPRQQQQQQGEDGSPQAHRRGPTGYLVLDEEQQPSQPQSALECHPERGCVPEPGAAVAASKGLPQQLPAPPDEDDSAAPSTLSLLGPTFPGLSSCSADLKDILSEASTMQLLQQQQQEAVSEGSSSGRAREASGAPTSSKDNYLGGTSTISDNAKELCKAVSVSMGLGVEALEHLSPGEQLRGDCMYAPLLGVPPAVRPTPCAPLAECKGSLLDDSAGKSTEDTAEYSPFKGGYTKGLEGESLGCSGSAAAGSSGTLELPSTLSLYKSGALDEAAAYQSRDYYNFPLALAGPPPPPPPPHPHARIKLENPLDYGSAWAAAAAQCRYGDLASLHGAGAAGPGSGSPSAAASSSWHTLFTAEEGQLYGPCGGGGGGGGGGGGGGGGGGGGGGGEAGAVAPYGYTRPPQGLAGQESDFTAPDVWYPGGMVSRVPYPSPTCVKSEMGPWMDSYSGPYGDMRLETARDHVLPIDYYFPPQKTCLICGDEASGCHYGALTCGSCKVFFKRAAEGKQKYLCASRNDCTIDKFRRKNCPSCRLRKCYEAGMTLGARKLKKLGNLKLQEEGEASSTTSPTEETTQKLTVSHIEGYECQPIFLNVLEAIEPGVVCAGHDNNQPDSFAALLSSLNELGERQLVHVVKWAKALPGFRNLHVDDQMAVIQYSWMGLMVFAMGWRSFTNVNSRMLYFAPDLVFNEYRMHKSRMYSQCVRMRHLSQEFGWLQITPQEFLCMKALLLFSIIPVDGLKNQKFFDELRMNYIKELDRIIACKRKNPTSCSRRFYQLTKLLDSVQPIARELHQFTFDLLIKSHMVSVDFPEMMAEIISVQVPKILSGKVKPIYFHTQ
The assay can be described thus: AR reporter assay, LNCaP-AR-wt AG (agonist mode). It is filed as cell-based. Conditions: for Emax: read-out: LNCaP-AR-wt AG MAX % Stim. The text has this: LNCaP AR (cs) and LNCaP F876L luciferase cell lines were generated by transduction of each cell line (description of cell line generation Joseph J D, Lu N, Qian J, Sensintaffar J, Shao G, Brigham D, Moon M, Maneval E C, Chen I, Darimont B, Hager J H. A clinically relevant androgen receptor mutation confers resistance to second-generation antiandrogens enzalutamide and ARN-509. Cancer Discov 2013; 3:1020-1029) with an Androgen Response Element Firefly Luciferase lentiviral construct at an MOI (multiplicity of infection) of 50 following the manufacturer's instructions (Qiagen). A stable pooled-population cell line was generated using puromycin (Life Technologies) selection at 1:10,000 v/v. The protocol below was used for both cell lines and for testing of the compounds of Formula (I) of the present invention.
LNCaP cells were grown to about 80% confluence, media removed and cells rinsed in Hank's balanced salt solution prior to separation from the plate with 0.05% Trypsin EDTA. Cells were lifted and trypsin negated in complete CSS (charcoal stripped serum) culture media. CSS was maintained on cells for 24 h prior to assay, at which time 5,000 cells/[…] were seeded in Greiner 384 well White/White Tissue Culture Treated Plates and incubated for a further 1-2 hours at 37° C., 5% CO2, prior to addition of 10 μL of 4× Test Compounds (compounds described herein) or Assay Controls (all diluted in complete media containing 10% css). A further 10 μL of 4× R-1881 Agonist Challenge (antagonist assay) or Buffer (agonist assay) was then added (all diluted in complete media containing 10% css). Agonist challenge was at 400 pM for WT assay and 600 pM for F876L assay. Plates containing cells and compounds herein were incubated for a further 20-24 hours at 37° C., 5% CO2 before addition of 40 μL/well of Steady-Glo Luciferase Assay System Reagent (Promega#E2520). After 1 h, plates were read for luminescence on a BMG Pherastar.
((Sample RLU−Ave Low Control RLU[DMSO/Buffer])/(Ave High Control RLU [1 μM R-1881]—Ave Low Control RLU[DMSO/Buffer]))*100.
EC/IC50 calculations were achieved utilizing calculated RLU data and data fitting macros. Data were fit using least-squares methods to the following formula: […]
As used herein: • pIC50 is defined as −Log10(IC50 expressed in [Molar]). • pEC50 is defined as −Log10(EC50 expressed in [Molar]). • MAX % Inh is defined as the maximum % inhibition of R1881 control response observed for a compound over the tested concentration range. • MAX % Stim is defined as the maximum % stimulation (agonist response) observed for a compound over the tested concentration range. • LNCaP-AR-wt ANT refers to the reporter assay using LNCaP cells stably transfected with the Androgen Response Element Firefly Luciferase lentiviral construct and wild-type Androgen Receptor (AR-wt) in Antagonist mode. • LNCaP-AR-wt AG refers to the reporter assay using LNCaP cells stably transfected with the Androgen Response Element Firefly Luciferase lentiviral construct and wild-type Androgen Receptor (AR-wt) in Agonist mode. • LNCaP-AR-F876L ANT refers to the reporter assay using LNCaP cells stably transfected with the Androgen Response Element Firefly Luciferase lentiviral construct and F876L mutant Androgen Receptor (AR-F876L) in Antagonist mode. • LNCaP-AR-F876L AG refers to the reporter assay using LNCaP cells stably transfected with the Androgen Response Element Firefly Luciferase lentiviral construct and F876L mutant Androgen Receptor (AR-F876L) in Agonist mode.

Where a name gives a salt, the structure may show the parent alone. Where only a bound is given, the exact number is not on record here.

With `CN1CCC(Oc2ccc(N3C(=S)N(c4ccc(C#N)c(C(F)(F)F)c4)C(=O)C3(C)C)cc2)CC1` [Compound 2, 4-(4,4-Dimethyl-3-(4-((1-methylpiperidin-4-yl)oxy)phenyl)-5-oxo-2-thioxoimidazolidin-1-yl)-2-(trifluoromethyl)benzonitrile hydrochloride], the EC50 was more than 15.1 µM and the Emax was -0.2%.

With `CC1(C)C(=O)N(c2ccc(C#N)c(C(F)(F)F)c2)C(=S)N1c1ccc(OC2CCNCC2)cc1` [Compound 1, 4-(4,4-Dimethyl-5-oxo-3-(4-(piperidin-4-yloxy)phenyl)-2-thioxoimidazolidin-1-yl)-2-(trifluoromethyl)benzonitrile], the EC50 was more than 15.1 µM and the Emax amounted to 0.6%.

Turning to `N#Cc1ccc(N2C(=O)C3(CCC3)N(c3ccc(OC4CCNCC4)nc3)C2=S)cc1C(F)(F)F` [Compound 13, 4-(8-Oxo-5-(6-(piperidin-4-yloxy)pyridin-3-yl)-6-thioxo-5,7-diazaspiro[3.4]octan-7-yl)-2-(trifluoromethyl)benzonitrile hydrochloride], the EC50 was more than 15.1 µM and the Emax was 0.5%.

Consider `N#Cc1ccc(N2C(=O)C3(CCC3)N(c3ccc(OC4CCNCC4)cc3)C2=S)cc1C(F)(F)F` [Compound 11, 4-(8-Oxo-5-(4-(piperidin-4-yloxy)phenyl)-6-thioxo-5,7-diazaspiro[3.4]octan-7-yl)-2-(trifluoromethyl)benzonitrile], for which the EC50 was more than 15.1 µM and the Emax is 0.1%.

Regarding `CC1(C)C(=O)N(c2ccc(C#N)c(C(F)(F)F)c2)C(=S)N1c1cnc(OC2CCNCC2)nc1` [Compound 5, 4-(4,4-Dimethyl-5-oxo-3-(2-(piperidin-4-yloxy)pyrimidin-5-yl)-2-thioxoimidazolidin-1-yl)-2-(trifluoromethyl)benzonitrile], the EC50 is more than 15.1 µM and the Emax amounted to 0.1%.

For `CN1CCC(Oc2ccc(N3C(=S)N(c4ccc(C#N)c(C(F)(F)F)c4)C(=O)C34CCC4)cn2)CC1` [Compound 14, 4-(5-(6-((1-Methylpiperidin-4-yl)oxy)pyridin-3-yl)-8-oxo-6-thioxo-5,7-diazaspiro[3.4]octan-7-yl)-2-(trifluoromethyl)benzonitrile], the EC50 was more than 15.1 µM and the Emax was found to be 0.2%.

Take `CC1(C)C(=O)N(c2ccc(C#N)c(Cl)c2)C(=S)N1c1ccc(OC2CCNCC2)cc1` [Compound 7, 2-Chloro-4-(4,4-dimethyl-5-oxo-3-(4-(piperidin-4-yloxy)phenyl)-2-thioxoimidazolidin-1-yl)benzonitrile hydrochloride]: the EC50 is more than 15.1 µM and the Emax amounted to 0%.
